The target in this assay is AChE (Electrophorus electricus) (Electrophorus electricus, UniProt O42275). Kind of assay: In vitro acetylcholinesterase inhibition assay. It counts as biochemical.
AChE (Electrophorus electricus), sequence (O42275 24-633): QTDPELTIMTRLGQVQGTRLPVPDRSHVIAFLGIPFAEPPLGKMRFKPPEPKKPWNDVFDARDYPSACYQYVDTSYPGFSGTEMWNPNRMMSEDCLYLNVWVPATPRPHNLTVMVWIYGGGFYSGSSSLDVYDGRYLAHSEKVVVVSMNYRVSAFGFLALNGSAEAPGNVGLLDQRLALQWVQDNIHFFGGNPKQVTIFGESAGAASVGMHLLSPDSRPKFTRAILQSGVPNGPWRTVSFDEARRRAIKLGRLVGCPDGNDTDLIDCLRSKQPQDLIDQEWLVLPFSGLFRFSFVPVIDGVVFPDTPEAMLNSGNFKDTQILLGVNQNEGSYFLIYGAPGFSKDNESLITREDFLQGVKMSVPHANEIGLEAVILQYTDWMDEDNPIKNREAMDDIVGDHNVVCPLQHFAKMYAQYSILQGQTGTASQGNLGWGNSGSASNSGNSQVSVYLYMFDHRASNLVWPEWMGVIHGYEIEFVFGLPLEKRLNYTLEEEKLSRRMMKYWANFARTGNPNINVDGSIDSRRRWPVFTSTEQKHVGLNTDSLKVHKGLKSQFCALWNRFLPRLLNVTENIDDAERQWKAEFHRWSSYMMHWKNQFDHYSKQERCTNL
What is called IC50 is the point on the concentration scale where inhibition reaches its midpoint. Low values mean inhibition by little substance, high ones a need for much substance. As for `O=c1cc(OCCCCOc2ccc(-c3nc4ccccc4s3)cc2)c2ccccc2o1` [Compound 3a, 4-(4-(4-(Benzo[d]thiazol-2-yl)phenoxy)butoxy)-2H-chromen-2-one], the IC50 worked out at 4.23 ± 0.11 µM. In turn, `COc1cc(-c2nc3ccccc3s2)ccc1OCCCCOc1cc(=O)oc2ccccc12` [Compound 3b, 4-(4-(4-(Benzo[d]thiazol-2-yl)-2-methoxyphenoxy)butoxy)-2H-chromen-2-one] yielded an IC50 of 16.5 ± 0.23 µM. In turn, `CCOc1cc(-c2nc3ccccc3s2)ccc1OCCCCOc1cc(=O)oc2ccccc12` [Compound 3c, 4-(4-(4-(Benzo[d]thiazol-2-yl)-2-ethoxyphenoxy)butoxy)-2H-chromen-2-one] showed a concentration for half-maximal inhibition (IC50) of 15.8 ± 0.18 µM. The IC50 values of the last two compounds are within 1.5-fold of each other. Consider `COc1cc(-c2nc3ccccc3s2)cc(OC)c1OCCCCOc1cc(=O)oc2ccccc12` [Compound 3d, 4-(4-(4-(Benzo[d]thiazol-2-yl)-2,6-dimethoxyphenoxy)butoxy)-2H-chromen-2-one], for which the IC50 was 6.8 ± 0.1 µM.

As to `COc1cc(OCCCCOc2cc(=O)oc3ccccc23)ccc1-c1nc2ccccc2s1` [Compound 3e, 4-(4-(4-(Benzo[d]thiazol-2-yl)-3-methoxyphenoxy)butoxy)-2H-chromen-2-one], the IC50 was determined as 18.7 ± 0.28 µM. The compound `O=c1cc(OCCCCCOc2ccc(-c3nc4ccccc4s3)cc2)c2ccccc2o1` [Compound 3f, 4-((5-(4-(Benzo[d]thiazol-2-yl)phenoxy)pentyl)oxy)-2H-chromen-2-one] gave an IC50 of 8.5 ± 0.18 µM. This IC50 lies about 2.2-fold lower than the previous one. On to `COc1cc(-c2nc3ccccc3s2)ccc1OCCCCCOc1cc(=O)oc2ccccc12` [Compound 3g, 4-((5-(4-(Benzo[d]thiazol-2-yl)-2-methoxyphenoxy)pentyl)oxy)-2H-chromen-2-one], for which the IC50 is 6.8 ± 0.13 µM.

The compound `CCOc1cc(-c2nc3ccccc3s2)ccc1OCCCCCOc1cc(=O)oc2ccccc12` [Compound 3h, 4-((5-(4-(Benzo[d]thiazol-2-yl)-2-ethoxyphenoxy)pentyl)oxy)-2H-chromen-2-one] showed an IC50 of 6.5 ± 0.12 µM. On to `COc1cc(-c2nc3ccccc3s2)cc(OC)c1OCCCCCOc1cc(=O)oc2ccccc12` [Compound 3i, 4-((5-(4-(Benzo[d]thiazol-2-yl)-2,6-dimethoxyphenoxy)pentyl)oxy)-2H-chromen-2-one], for which the IC50 was 2.7 ± 0.1 µM.

As to `COc1cc(OCCCCCOc2cc(=O)oc3ccccc23)ccc1-c1nc2ccccc2s1` [Compound 3j, 4-((5-(4-(Benzo[d]thiazol-2-yl)-3-methoxyphenoxy)pentyl)oxy)-2H-chromen-2-one], 7.5 ± 0.16 µM corresponded to half-maximal inhibition (IC50). Against the preceding compound, the IC50 is about 2.8-fold higher. In turn, `O=c1cc(OCCCCCCOc2ccc(-c3nc4ccccc4s3)cc2)c2ccccc2o1` [Compound 3k, 4-((6-(4-(Benzo[d]thiazol-2-yl)phenoxy)hexyl)oxy)-2H-chromen-2-one] registered an IC50 of 35.8 ± 0.3 µM. To `COc1cc(-c2nc3ccccc3s2)ccc1OCCCCCCOc1cc(=O)oc2ccccc12` [Compound 3l, 4-((6-(4-(Benzo[d]thiazol-2-yl)-2-methoxyphenoxy)hexyl)oxy)-2H-chromen-2-one] belongs 33.2 ± 0.28 µM. Then `CCOc1cc(-c2nc3ccccc3s2)ccc1OCCCCCCOc1cc(=O)oc2ccccc12` [Compound 3m, 4-((6-(4-(Benzo[d]thiazol-2-yl)-2-ethoxyphenoxy)hexyl)oxy)-2H-chromen-2-one], with 27.9 ± 0.2 µM; and `COc1cc(-c2nc3ccccc3s2)cc(OC)c1OCCCCCCOc1cc(=O)oc2ccccc12` [Compound 3n, 4-((6-(4-(Benzo[d]thiazol-2-yl)-2,6-dimethoxyphenoxy)hexyl)oxy)-2H-chromen-2-one], with 12.1 ± 0.19 µM; and `COc1cc(OCCCCCCOc2cc(=O)oc3ccccc23)ccc1-c1nc2ccccc2s1` [Compound 3o, 4-((6-(4-(Benzo[d]thiazol-2-yl)-3-methoxyphenoxy)hexyl)oxy)-2H-chromen-2-one], with 30.7 ± 0.23 µM.

For the origin of these results see paper PMC11531508 (Scientific Reports, 2024).
